Among the data in patent US20230331715A1, “SPIRO[3.3]HEPTANE DERIVATIVES FOR THE TREATMENT AND PROPHYLAXIS OF HEPATITIS B VIRUS INFECTION” (priority 2020, published 2023) are CC50 and IC50 values, retold here.

Read-outs that look alike come from different tables or passages of the source.

Format in all cases: cell-based
Series [1] in a line: Cytotoxicity in PHH natural infection assay (Cell Counting Kit-8). Particulars: human; HBV-infected PHH, CCK8, compound refreshed two times with 72-hour interval. Here is the method: (§1) Detailed procedures regarding primary human hepatocyte (PHH) HBV natural infection assay are described as below. One tube of frozen PHH (10 million cells) is thawed in 37° C. water bath and then transferred to 20 mL of PHH thawing medium (Sigma, InVitroGRO HT Medium, Cat. S03319) with gently mixing. The cells were then centrifuged at […] for 5 min, the supernatant was discarded and the tube was refilled with 25 mL of PHH plating medium (Sigma, InVitroGRO CP Medium, Cat. S03317). The tube was shaken very gently to re-suspend all cells, and then 50 µl of cells were transferred to each well 384-well collagen I coated plate with appropriate liquid handling equipment, e.g. Integra VIAFLO384 or Agilent Bravo. The cells were then cultured for 24 hours in a cell incubator. For HBV infection, after PHH attachment on the culture plate, the plating medium was removed and replenished with PHH culture medium containing HBV virus. The PHH culture medium was prepared with Dulbecco’s Modified Eagle Medium (DMEM)/F12 (1: 1 in volume ratio) containing 10% fetal bovine serum (Gibco, Cat. 10099141), 5 ng/mL human epidermal growth factor (Gibco, Cat.PHG0311L), 20 ng/mL dexamethasone (Sigma, Cat.D4902-100mg), 250 ng/mL human recombinant insulin (Gibco, Cat.41400045) and 100 U/mL penicillin. HBV virus at 200 genome equivalent (GE) per cell with 4% PEG8000 (Sigma, Cat.P1458) containing culture medium were added to the PHH culture medium for infection. The cells were then cultured for 24 hours in cell incubator. Then the cell culture supernatant was removed. The HBV-infected PHH were cultured with sandwich culture method with PHH culture medium containing 1% DMSO and 0.25 mg/mL matrix gel for 72 hours. The supernatant was then refreshed with PHH culture medium containing different concentrations of testing compounds for two times with 72-hour interval. At the end of treatment, the supernatant was collected for viral markers measurements, including HBsAg, HBeAg, HBV DNA and cytotoxicity. HBsAg and HBeAg were detected using alphalisa method using their specific antibodies. For HBV DNA detection, HBV DNA Quantitative Fluorescence Diagnostic Kit (Sansure Biotech Inc.) was used following the manufacture’s protocol. Cytotoxicity was determined using Cell Counting Kit-8 (CCK8, Dojindo Molecular Technologies, Inc.).

In another series the test system is HBsAg. In words: PHH HBV natural infection assay, HBsAg (alphalisa). The protocol: as §1
(§2) The compounds of the present invention were tested for their capacity to inhibit HBsAg and HBeAg as described herein.

The test system of the next series is HBeAg. In words: PHH HBV natural infection assay, HBeAg (alphalisa). Here is the method: as §1, §2
Where [2] appears, read: read-out: HBsAg IC50, HBV-infected PHH, culture supernatant, compound refreshed two times with 72-hour interval, alphalisa.
Setting [3] is: read-out: HBeAg IC50, HBV-infected PHH, culture supernatant, compound refreshed two times with 72-hour interval, alphalisa.
The mark [4] stands for this setting: Hepatitis B virus, 72 h, read-out: HBsAg IC50, HBV-infected PHH, culture supernatant, compound refreshed two times with 72-hour interval, alphalisa.
[5] abbreviates: Hepatitis B virus, 72 h, read-out: HBeAg IC50, HBV-infected PHH, culture supernatant, compound refreshed two times with 72-hour interval, alphalisa.

In series [1], `[H][C@]1(NC(=O)c2ccnc(C(N)=O)c2)C[C@@]2(C1)C[C@]([H])(c1nc3cc(Cl)ccc3s1)C2` (single isomer, unassigned) [Example 53-a, (Sa)-N4-[6-(5-chloro-1,3-benzothiazol-2-yl)spiro[3.3]heptan-2-yl]pyridine-2,4-dicarboxamide] gave a CC50 at 144 h of 36.8 µM. The IC50 worked out at 0.29 µM with HBsAg (setting [2]) and 0.24 µM with HBeAg (setting [3]).

Take `[H][C@]1(NC(=O)c2ccnc(C(N)=O)c2)C[C@]2(C1)C[C@]([H])(c1nc3cc(Cl)ccc3s1)C2` (single isomer, unassigned) [Example 53-b, (Ra)-N4-[6-(5-chloro-1,3-benzothiazol-2-yl)spiro[3.3]heptan-2-yl]pyridine-2,4-dicarboxamide]: the CC50 at 144 h in series [1] is greater than 10 µM. The IC50 with HBsAg (setting [2]) amounted to 5.96 µM; with HBeAg (setting [3]), 5.25 µM.

`[H][C@]1(NC(=O)c2ccnc(S(C)(=O)=O)c2)C[C@@]2(C1)C[C@]([H])(c1nc3cc(Cl)ccc3s1)C2` (single isomer, unassigned) [Example 54-a, (Sa)-N-[6-(5-chloro-1,3-benzothiazol-2-yl)spiro[3.3]heptan-2-yl]-2-methylsulfonyl-pyridine-4-carboxamide] displayed a CC50 at 144 h in series [1] greater than 10 µM. The IC50 with HBsAg (setting [2]) was 2.46 µM; in the series on HBeAg (setting [3]) it was 1.79 µM.

In series [1], `[H][C@]1(NC(=O)c2ccnc(S(C)(=O)=O)c2)C[C@]2(C1)C[C@]([H])(c1nc3cc(Cl)ccc3s1)C2` (single isomer, unassigned) [Example 54-b, (Ra)-N-[6-(5-chloro-1,3-benzothiazol-2-yl)spiro[3.3]heptan-2-yl]-2-methylsulfonyl-pyridine-4-carboxamide] had a CC50 at 144 h of 15.3 µM. Moreover, the IC50 was 0.28 µM with HBsAg (setting [2]) and 0.23 µM with HBeAg (setting [3]).

`[H][C@]1(NC(=O)c2ccnc(S(=O)(=O)C3CC3)c2)C[C@@]2(C1)C[C@]([H])(c1nc3cc(Cl)ccc3s1)C2` (single isomer, unassigned) [Example 55-a, (Sa)-N-[6-(5-chloro-1,3-benzothiazol-2-yl)spiro[3.3]heptan-2-yl]-2-cyclopropylsulfonyl-pyridine-4-carboxamide] gave a CC50 at 144 h in series [1] of 22.5 µM. The values for the IC50 with HBsAg (setting [2]) and in the series with HBeAg (setting [3]) were 1.56 µM and 1.09 µM, respectively.

For the molecule `[H][C@]1(NC(=O)c2ccnc(S(=O)(=O)C3CC3)c2)C[C@]2(C1)C[C@]([H])(c1nc3cc(Cl)ccc3s1)C2` (single isomer, unassigned) [Example 55-b, (Ra)-N-[6-(5-chloro-1,3-benzothiazol-2-yl)spiro[3.3]heptan-2-yl]-2-cyclopropylsulfonyl-pyridine-4-carboxamide], in series [1], the CC50 at 144 h was determined as 11.6 µM. The results for the IC50 in the series with HBsAg (setting [2]) and in the series on HBeAg (setting [3]) were 0.54 µM and 0.4 µM, respectively.

For the molecule `[H][C@]1(NC(=O)c2cc(C(N)=O)ncn2)C[C@@]2(C1)C[C@]([H])(c1nc3cc(Cl)ccc3s1)C2` (single isomer, unassigned) [Example 56-a, (Sa)-N6-[6-(5-chloro-1,3-benzothiazol-2-yl)spiro[3.3]heptan-2-yl]pyrimidine-4,6-dicarboxamide], the CC50 at 144 h in series [1] is greater than 10 µM. Besides, the figures for the IC50 in the series with HBsAg (setting [4]) and in the series on HBeAg (setting [5]) were 3.29 µM and 2.47 µM, respectively.

The molecule `[H][C@]1(NC(=O)c2cc(C(N)=O)ncn2)C[C@]2(C1)C[C@]([H])(c1nc3cc(Cl)ccc3s1)C2` (single isomer, unassigned) [Example 56-b, (Ra)-N6-[6-(5-chloro-1,3-benzothiazol-2-yl)spiro[3.3]heptan-2-yl]pyrimidine-4,6-dicarboxamide] had a CC50 at 144 h in series [1] greater than 10 µM. The IC50 is 3.3 µM in the series on HBsAg (setting [2]) and 2.27 µM in the series on HBeAg (setting [3]).

In series [1], `O=C(NC1CC2(C1)CC(c1nc3cc(Cl)ccc3s1)C2)c1cccc(C(F)(F)F)c1` (stereo not drawn) [Example 1, N-[6-(5-chloro-1,3-benzothiazol-2-yl)spiro[3.3]heptan-2-yl]-3-(trifluoromethyl)benzamide] returned a CC50 at 144 h greater than 10 µM. For the same molecule, the IC50 with HBsAg (setting [4]) turned out to be 6.55 µM; in the series on HBeAg (setting [5]) it was 4.53 µM.

In turn, `NS(=O)(=O)c1cccc(C(=O)NC2CC3(C2)CC(c2nc4cc(Cl)ccc4s2)C3)c1` (stereo not drawn) [Example 2, N-[6-(5-chloro-1,3-benzothiazol-2-yl)spiro[3.3]heptan-2-yl]-3-sulfamoyl-benzamide] yielded a CC50 at 144 h in series [1] greater than 10 µM. For the same molecule, the figures for the IC50 in the series with HBsAg (setting [4]) and in the series with HBeAg (setting [5]) were 3.71 µM and 3.33 µM, respectively.

Regarding `CP(C)(=O)c1cccc(C(=O)NC2CC3(C2)CC(c2nc4cc(Cl)ccc4s2)C3)c1` (stereo not drawn) [Example 3, N-[6-(5-chloro-1,3-benzothiazol-2-yl)spiro[3.3]heptan-2-yl]-3-dimethylphosphoryl-benzamide], the 50% cytotoxic concentration (CC50) at 144 h in series [1] is greater than 10 µM. The IC50 worked out at 6.37 µM with HBsAg (setting [4]) and 4.39 µM in the series on HBeAg (setting [5]).

With `O=C(NC1CC2(C1)CC(c1nc3cc(Cl)ccc3s1)C2)c1ccnc(C(F)(F)F)c1` (stereo not drawn) [Example 4, N-[6-(5-chloro-1,3-benzothiazol-2-yl)spiro[3.3]heptan-2-yl]-2-(trifluoromethyl)pyridine-4-carboxamide], in series [1], the CC50 at 144 h was greater than 10 µM. Also, the IC50 is 5.05 µM with HBsAg (setting [4]) and 4.34 µM in the series with HBeAg (setting [5]).

The molecule `N#Cc1cc(C(=O)NC2CC3(C2)CC(c2nc4cc(Cl)ccc4s2)C3)ccn1` (stereo not drawn) [Example 5, N-[6-(5-chloro-1,3-benzothiazol-2-yl)spiro[3.3]heptan-2-yl]-2-cyano-pyridine-4-carboxamide] registered a CC50 at 144 h in series [1] greater than 10 µM. The IC50 in the series on HBsAg (setting [4]) worked out at 3.47 µM; in the series with HBeAg (setting [5]), 2.92 µM.

`Cc1cc(C(=O)NC2CC3(C2)CC(c2nc4cc(Cl)ccc4s2)C3)ccn1` (stereo not drawn) [Example 6, N-[6-(5-chloro-1,3-benzothiazol-2-yl)spiro[3.3]heptan-2-yl]-2-methyl-pyridine-4-carboxamide] showed a CC50 at 144 h in series [1] greater than 10 µM. Also, the IC50 in the series with HBsAg (setting [4]) worked out at 3.63 µM; in the series on HBeAg (setting [5]), 3.3 µM.

In series [1], `CS(=O)(=O)Cc1cc(C(=O)NC2CC3(C2)CC(c2nc4cc(Cl)ccc4s2)C3)ccn1` (stereo not drawn) [Example 7, N-[6-(5-chloro-1,3-benzothiazol-2-yl)spiro[3.3]heptan-2-yl]-2-(methylsulfonylmethyl)pyridine-4-carboxamide] returned a CC50 at 144 h greater than 10 µM. The IC50 in the series with HBsAg (setting [4]) came to 3.33 µM; in the series on HBeAg (setting [5]), 3.09 µM.

Molecule `CC(C)(c1cc(C(=O)NC2CC3(C2)CC(c2nc4cc(Cl)ccc4s2)C3)ccn1)S(C)(=O)=O` (stereo not drawn) [Example 8, N-[6-(5-chloro-1,3-benzothiazol-2-yl)spiro[3.3]heptan-2-yl]-2-(1-methyl-1-methylsulfonylethyl)pyridine-4-carboxamide] returned a CC50 at 144 h in series [1] of 35.9 µM. In addition, the IC50 was 1.89 µM with HBsAg (setting [4]) and 1.23 µM in the series with HBeAg (setting [5]).

For the molecule `CCS(=O)(=O)c1cc(C(=O)NC2CC3(C2)CC(c2nc4cc(Cl)ccc4s2)C3)ccn1` (stereo not drawn) [Example 9, N-[6-(5-chloro-1,3-benzothiazol-2-yl)spiro[3.3]heptan-2-yl]-2-ethylsulfonyl-pyridine-4-carboxamide], the CC50 at 144 h in series [1] was 13.4 µM. Also, the IC50 with HBsAg (setting [4]) came to 1.35 µM; in the series with HBeAg (setting [5]), 1.21 µM.

As to `NC(=O)Nc1cc(C(=O)NC2CC3(C2)CC(c2nc4cc(Cl)ccc4s2)C3)ccn1` (stereo not drawn) [Example 10, N-[6-(5-chloro-1,3-benzothiazol-2-yl)spiro[3.3]heptan-2-yl]-2-ureido-pyridine-4-carboxamide], the CC50 at 144 h in series [1] is greater than 50 µM. The half-maximal inhibitory concentration (IC50) was found to be 7.7 µM in the series on HBsAg (setting [4]) and 8.43 µM with HBeAg (setting [5]).

As to `NC(=O)c1cc(C(=O)NC2CC3(C2)CC(c2nc4cc(Cl)ccc4s2)C3)ccn1` (stereo not drawn) [Example 11, N4-[6-(5-chloro-1,3-benzothiazol-2-yl)spiro[3.3]heptan-2-yl]pyridine-2,4-dicarboxamide], in series [1], the CC50 at 144 h was greater than 50 µM. Further, the IC50 stood at 4.06 µM with HBsAg (setting [4]) and 6.81 µM with HBeAg (setting [5]).

In series [1], `NC(=O)c1cc(C(=O)NC2CC3(C2)CC(c2nc4cc5c(cc4s2)OCO5)C3)ccn1` (stereo not drawn) [Example 12, N4-[6-([1,3]dioxolo[4,5-f][1,3]benzothiazol-6-yl)spiro[3.3]heptan-2-yl]pyridine-2,4-dicarboxamide] came in with a CC50 at 144 h of 23.3 µM. The IC50 in the series on HBsAg (setting [4]) was found to be 6.58 µM; in the series with HBeAg (setting [5]), 6.53 µM.

One may read the CC50 as the concentration at which the toxic effect on the cells reaches its halfway point. Broadly, the IC50 is the concentration that inhibits the measured activity by half.
